Results from US20210403864A1, “METHODS AND COMPOSITIONS FOR TREATING ACTIVATED G-ALPHA Q MUTANT CANCERS OR MELANOCYTIC MALIGNANCIES” (Memorial Sloan Kettering Cancer Center, priority 2018, published 2021).
Substitutions are numbered along the chain they refer to. Where two headings read alike, the source gives them in different places.

What was measured:
GNAQ^G48V = target: T1, GNAQ^G48V (Homo sapiens, UniProt P50148, G48V); test: IP1 accumulation assay in transiently transfected HEK293T cells; assay type: cell-based; conditions: 24-hour treatment
T1 construct: host or cells: melan-a (immortalized mouse melanocytes), retroviral transduction with MSCV-Puro
T1 sequence (P50148 1-359 G48V): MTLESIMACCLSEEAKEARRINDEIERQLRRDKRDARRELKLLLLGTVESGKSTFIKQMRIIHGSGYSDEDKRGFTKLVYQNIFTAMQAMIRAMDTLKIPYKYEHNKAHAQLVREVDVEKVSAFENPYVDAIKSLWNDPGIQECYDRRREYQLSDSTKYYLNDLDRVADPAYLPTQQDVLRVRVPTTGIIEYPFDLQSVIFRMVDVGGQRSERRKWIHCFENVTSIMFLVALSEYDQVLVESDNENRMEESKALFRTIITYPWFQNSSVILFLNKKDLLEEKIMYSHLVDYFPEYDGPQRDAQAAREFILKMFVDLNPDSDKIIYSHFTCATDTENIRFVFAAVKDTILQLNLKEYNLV
Description: (§1) Cells were treated with YM at increasing doses for 24 hours. Error bars, s.e.m. from three biological replicates, each with three technical replicates.
(§2) Exogenous Gene Expression. HEK293T cells were transiently transfected to express vectors containing synthetic CYSLTR2 (Moore A R, et al., Nat Genet. 48(6):675 (2016)) and GNAQ. Genewiz was used to codon optimize these sequences for expression in mammalian cells. The human GNAQ α-subunit plasmids encoding for GNAQ mutants Q209L, R183Q and G48V were generated by Quick Change (Agilent Technologies, Santa Clara, Calif.) site-directed mutagenesis. HEK293T cells were transiently transfected with the plasmids encoding for GNAQ WT and mutants subcloned into pcDNA3.1(+) using Lipofectamine according to the manufacturer's instructions. Briefly, 9,000 HEK293T cells were transfected in low-volume 384-well plates with 11 ng of total DNA/well for 24 hours. Human cDNAs for WT CYSLTR2 and GNAQ were obtained from Origene and cloned into MSCV-Puro (Addgene plasmid #68469) for stable expression in melan-a cells via retroviral transduction with X-tremeGENE 9 (Sigma-Aldrich, St. Louis Mo.). Quikchange primers were used to introduce the various mutant constructs. All constructs were confirmed by sequencing. The primers used in the experiments described herein are provided below: […]
(§3) IP1 Accumulation Assay. IP1 concentrations in GNAQ-transfected HEK293T cells, GNAQ-expressing melan-a cells and uveal melanoma cells was measured using a competitive homogenous time resolved fluorescence (HTRF) assay (CisBio, Bedford, Mass.). Briefly, 9,000 transiently transfected-HEK293T cells, 5,000 melan-a cells and 5,000 uveal melanoma cells were seeded in low-volume 384-well plates in 7 μL media for 24 hours prior YM-254890 treatment. Cells were then treated with various concentrations of YM-254890 diluted in the appropriate media at 37° C. for 3 hours or 24 hours. […] Following incubation, cells were lysed by adding 3 μL/well of d2-labeled IP1 analogue as the fluorescence acceptor and the Terbium cryptate-labeled anti-IP1 mAb as the fluorescence donor, diluted in the kit-supplied lysis buffer. The plates were incubated overnight at RT and time-resolved fluorescence signals were read using the BioTek Synergy NEO plate reader (BioTek Instruments, Winooski, Vt.) at 620 nm and […]. Results were calculated as a 665 nm/620 nm signal ratio, and IP1 concentrations were interpolated from a standard curve prepared using the supplied IP1 calibrator. […] Dose-response curves and bar graphs were analyzed using GraphPad Prism 7.0 software. […]

GNAQ^Q209L = target: T2, GNAQ^Q209L (Homo sapiens, UniProt P50148, Q209L); test: as above; assay type: cell-based; conditions: 24-hour treatment
T2 construct: host or cells: melan-a (immortalized mouse melanocytes), retroviral transduction with MSCV-Puro
T2 sequence (P50148 1-359 Q209L): T1 sequence (P50148 1-359 G48V) with V48G, Q209L
Description: as §1, §2, §3

GNAQ^R183Q = target: T3, GNAQ^R183Q (Homo sapiens, UniProt P50148, R183Q); test: as above; assay type: cell-based; conditions: 24-hour treatment
T3 construct: host or cells: melan-a (immortalized mouse melanocytes), retroviral transduction with MSCV-Puro
T3 sequence (P50148 1-359 R183Q): T1 sequence (P50148 1-359 G48V) with V48G, R183Q
Description: as §1, §2, §3

[1] = test system: human UVM cell lines that harbored the GNAQ^Q209L/P mutation; test: IP1 accumulation assay in UVM cells; assay type: cell-based; conditions: YM treatment at 24 hours
Description: Cells were treated with increasing concentrations of YM for 3 hours (top) and 24 hours (bottom). Error bars, s.e.m from three biological replicates, each with three technical replicates.
as §3, with “treatment.” for “treatment. Cells were then treated with various concentrations of YM-254890 diluted in the appropriate media at 37° C. for 3 hours or 24 hours.”

Gαq^Q209L = Gαq^Q209L (Homo sapiens, UniProt P50148, Q209L); conditions: overexpression systems, literature, cited from earlier work
Sequence of Gαq^Q209L (P50148 whole entry Q209L): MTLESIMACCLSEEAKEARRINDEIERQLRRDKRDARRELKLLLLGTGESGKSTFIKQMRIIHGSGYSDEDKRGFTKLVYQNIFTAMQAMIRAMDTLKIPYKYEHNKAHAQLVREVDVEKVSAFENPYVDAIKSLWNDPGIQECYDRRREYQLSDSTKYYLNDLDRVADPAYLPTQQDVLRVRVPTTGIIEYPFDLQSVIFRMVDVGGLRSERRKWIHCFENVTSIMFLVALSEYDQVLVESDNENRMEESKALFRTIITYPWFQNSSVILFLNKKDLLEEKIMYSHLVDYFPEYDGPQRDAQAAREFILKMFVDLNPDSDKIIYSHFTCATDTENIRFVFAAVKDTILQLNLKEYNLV

## YM-254890
GNAQ^G48V
  potency of inhibition of IP1 accumulation: subnanomolar potency
GNAQ^Q209L
  inhibition of signaling (IP1 accumulation): incompletely/poorly inhibited
  relative sensitivity to YM (IP1 accumulation): most resistant
GNAQ^R183Q
  fold less sensitive to YM compared to CYSLTR2^L129Q and GNAQ^G48V (IP1 accumulation): ~20 fold
[1]
  inhibition of IP1 accumulation: inhibited
Gαq^Q209L
  inhibition of aberrant Gαq signaling downstream of Gαq^Q209L: ineffective
Gαq^Q209L; listed as YM
  inhibition of aberrant Gαq signaling downstream of Gαq^Q209L: unable to inhibit
